According to US8377915B2, “Methods for treating or preventing disorders using ecdysteroid compositions” (Rutgers, The State University of New Jersey, priority 2006, dated 2013):

Columns and labels:
Assay type in all cases: cell-based
[1] = tested on: mouse growth hormone; experiment: Real Time RT-PCR of growth hormone expression in C2C12 cells; conditions: for effect on growth hormone expression (in words): C2C12; for Growth Hormone Expression relative to Control: C2C12, 1 μM, Real Time RT-PCR, normalized to GAPDH
Method: (§1) A mouse skeletal muscle cell line, C2C12, (ATCC) was seeded between 4 and 20 passages at a density of 10^5 cells/cm^2 onto 10 cm tissue culture plates. The cells were grown in DMEM supplemented with 10% Fetal Bovine Serum, 10 mM HEPES, 6 mM Glutamine, 1 mM pyruvate, 100 U/ml penicillin, and 100 ug/ml streptomycin.
(§2) Cells were grown for 48 hours in 5% CO2 at 37° C. until they approached 80% confluency. Cells were washed with serum free DMEM and treated with either 1 μM […] (20HE), or methandrostenolone (synthetic anabolic steroid). Both compounds were dissolved in 70% ethanol and added to serum free media. Cells were incubated after treatment for 18 hours before RNA extraction.
(§3) Selected microarray results were verified by comparison with mRNA levels obtained by Real Time reverse transcription PCR (qRT-PCR). Selected gene-specific primer pairs were designed for the mouse growth hormone and glyceraldehyde-3-phosphate dehydrogenase genes using the Primer Express software, as shown in Table 3. Total RNA was isolated, DNase I-treated, and first-strand cDNA was synthesized using Stratascript reverse transcriptase with random primers. The PCR reactions were carried out using 500 ng of cDNA, 150 nM of each primer, and SYBR Green master mix in 25 μL reactions. Levels of quantitative reverse transcription product were measured using SYBR Green fluorescence collected during real-time PCR on a Stratagene MXP3000 sequence detection system. A control cDNA dilution series was created for each gene to establish a standard curve. Reverse transcriptase was excluded from control samples to identify potential genomic contamination. Each reaction was subjected to melting point analysis to confirm single amplified products. The data generated from each PCR were analyzed using MXP 3000 software.
(§4) Quantitative real time PCR was used to verify the microarray results for growth hormone. RNA samples from each treatment were reverse-transcribed into cDNA and amplified using real time PCR. Values for growth hormone were normalized to values obtained for the housekeeping gene, glyceraldehyde-3-phosphate dehydrogenase, and the ratios of the two treatments were calculated. In both the C2C12 and TM3 cell lines differential expression was qualitatively confirmed.
(§5) Using the ΔΔCt method, relative expression was calculated.

[2] = tested on: TM3 mouse Leydig cell line; experiment: cDNA microarray comparison of transcription, 20HE vs methandrostenolone, TM3 cells; conditions: 18 hours
Method: (§6) A transcriptome approach utilizing cDNA microarray was implemented to observe the unique effects of ecdysteroids. Microarray analyses was developed and implemented to discern the transcriptional differences between ecdysteroids and anabolic steroids.
(§7) A mouse Leydig cell line, TM3, (ATCC) was seeded between 5 and 20 passages at a density of 10^5 cells/cm^2 onto 10 cm tissue culture plates. The cells were grown in F12/DME media supplemented with 5% horse serum, 2.5% fetal bovine serum, 100 U/ml penicillin, and 100 μg/ml streptomycin.
as §2
(§8) RNA was extracted and purified from C2C12 myoblasts and TM3 Leydig tumor line cells using an RNeasy kit according to the manufacturer's instructions (Qiagen). RNA concentration and purity were assessed using a spectrophotometer. All RNA samples used had 260/280 ratios greater than 1.9.
(§9) A collection of 21,900 oligonucleotides was purchased from Compugen, Inc. Microarrays were printed on poly-L-lysine-coated glass slides using an OmniGrid microarrayer (GeneMachines, San Carlos, Calif.) and quill-type printing pins (Telichem, Sunnyvale, Calif.) following standard procedures. Fluorescent probes were prepared from 5 μg of total cellular RNA using the Genisphere 3DNA dendrimer system (Genisphere, Inc., Montvale, N.J.). Two separate microarrays, one for each cell line, were run. The ecdysone treated RNA sample was labeled with Cy3 and the methandrostenelone treated RNA sample was labeled with Cy5 in a parallel reaction, mixed, and hybridized to the chips. Automated microarray hybridization and washing were performed using a Ventana Discovery System. The sequence-tagged target was hybridized for 12 hours at 58° C., and microarrays were washed twice in […] for 10 minutes at 55° C. and once in […] for 2 minutes at 42° C. Florescent dendrimer was then applied and incubated at 55° C. for 2 hours. The microarrays were then washed with […] and spin-dried, followed by scanning on an Axon GenePix 4000B. Image files were processed using Axon GenePix 4.0 software, resulting in text files containing median fluorescence intensities as well as median local backgrounds. Normalized data were imported along with spot flag information into GeneSpring where the ratios were calculated.

[3] = tested on: mouse growth hormone; experiment: Real Time RT-PCR of growth hormone expression in TM3 cells; conditions: for effect on growth hormone expression (in words): TM3; for Growth Hormone Expression relative to Control: TM3, 1 μM; for change in growth hormone expression over time (in words): TM3, treated 20 minutes to 24 hours
Method: as §7, §2, §3, §4, §5
To further investigate the effects of 20-HE, the TM3 leydig cell line was treated for varying intervals, from 20 minutes to 24 hours, with either 20-HE or methandrostenolone. Growth hormone expression was than analyzed using real time PCR as mentioned earlier.

[4] = tested on: C2C12 mouse skeletal muscle cell line; experiment: cDNA microarray comparison of transcription, 20HE vs methandrostenolone, C2C12 cells; conditions: 18 hours
Method: as §6, §1, §2, §8, §9

[5] = Real Time RT-PCR, normalized to GAPDH

CC(C)(O)CC[C@@H](O)[C@](C)(O)[C@H]1CC[C@@]2(O)C3=CC(=O)[C@@H]4C[C@@H](O)[C@@H](O)C[C@]4(C)[C@H]3CC[C@]12C [20-Hydroxyecdysone, 20-hydroxyecdysone]
effect on growth hormone expression (in words) [1]: increased expression of GH
Growth Hormone Expression relative to Control [1]: 3.9 ± 0.9
20E/D Expr: Growth hormone ([2]; TM3, 1 μM, expression ratio 20HE to methandrostenolone, LL 14599): 7.006
20E/D Expr: Insulin II ([2]; TM3, 1 μM, expression ratio 20HE to methandrostenolone, LL 16334): 0.262
20E/D Expr: Nuclear receptor subfamily 4, group A, member 2 ([2]; TM3, 1 μM, expression ratio 20HE to methandrostenolone, LL 18227): 0.010
20E/D Expr: Chemokine (C-C motif) ligand 20 ([2]; TM3, 1 μM, expression ratio 20HE to methandrostenolone, LL 20297): 11.89
20E/D Expr: Signal transducer and activator of transcription 1 ([2]; TM3, 1 μM, expression ratio 20HE to methandrostenolone, LL 20846): 0.052
20E/D Expr: Steroid sulfatase ([2]; TM3, 1 μM, expression ratio 20HE to methandrostenolone, LL 20905): 4.611
20E/D Expr: Insulin receptor-related receptor ([2]; TM3, 1 μM, expression ratio 20HE to methandrostenolone, LL 23920): 0.022
20E/D Expr: Osteomodulin ([2]; TM3, 1 μM, expression ratio 20HE to methandrostenolone, LL 27047): 0.010
20E/D Expr: Ndufs3 ([2]; TM3, 1 μM, expression ratio 20HE to methandrostenolone, LL 68349): 4.741
genes down-regulated more than 2 fold as compared to methandrostenolone ([2]; TM3, microarray, 1 μM): 341 genes
genes up-regulated more than 2 fold as compared to methandrostenolone ([2]; TM3, microarray, 1 μM): 287 genes
increase of growth hormone expression more than methandrostenolone ([2]; TM3, microarray, 1 μM): 7.0 times
effect on growth hormone expression (in words) [3]: increased expression of GH
Growth Hormone Expression relative to Control [3, 5]: 7.1 ± 1.2
Growth Hormone Expression relative to Control ([3]; incubation time 20 m): 0.9
Growth Hormone Expression relative to Control ([3]; incubation time 45 m): 3.5
Growth Hormone Expression relative to Control ([3]; incubation time 1 hr): 7.3
Growth Hormone Expression relative to Control ([3]; incubation time 2 hr): 6.9
Growth Hormone Expression relative to Control ([3]; incubation time 4 hr): 7.2
Growth Hormone Expression relative to Control ([3]; incubation time 24 hr): 7
change in growth hormone expression over time (in words) [3]: increased growth hormone expression over time, beginning after 45 minute and remaining increased after 24 hours
20E/D Expr: Annexin A5 ([4]; C2C12, 1 μM, expression ratio 20HE to methandrostenolone, LL 11747): 11.90
20E/D Expr: Cholecystokinin ([4]; C2C12, 1 μM, expression ratio 20HE to methandrostenolone, LL 12424): 0.010
20E/D Expr: Fas death domain-associated protein ([4]; C2C12, 1 μM, expression ratio 20HE to methandrostenolone, LL 13163): 0.010
20E/D Expr: Fibroblast growth factor 11 ([4]; C2C12, 1 μM, expression ratio 20HE to methandrostenolone, LL 14166): 0.010
20E/D Expr: Growth hormone ([4]; C2C12, 1 μM, expression ratio 20HE to methandrostenolone, LL 14599): 3.163
20E/D Expr: Histocompatibility 2, D region locus 1 ([4]; C2C12, 1 μM, expression ratio 20HE to methandrostenolone, LL 14964): 6.771
20E/D Expr: Hexokinase 2 ([4]; C2C12, 1 μM, expression ratio 20HE to methandrostenolone, LL 15277): 0.010
20E/D Expr: mago-nashi homolog, proliferation-associated ([4]; C2C12, 1 μM, expression ratio 20HE to methandrostenolone, LL 17149): 3.708
20E/D Expr: Insulin receptor-related receptor ([4]; C2C12, 1 μM, expression ratio 20HE to methandrostenolone, LL 23920): 0.020
genes down-regulated more than two fold as compared to methandrostenolone ([4]; C2C12, microarray, 1 μM): 479 genes
genes up-regulated more than 2-fold as compared to methandrostenolone ([4]; C2C12, microarray, 1 μM): 278 genes
increase of growth hormone expression more than methandrostenolone ([4]; C2C12, microarray, 1 μM): 3.2 times

C[C@]12C=CC(=O)C=C1CC[C@@H]1[C@@H]2CC[C@@]2(C)[C@H]1CC[C@]2(C)O [Methandrostenolone, methandrostenolone, reference compound]
effect on growth hormone expression (in words) [1]: little or no effect
Growth Hormone Expression relative to Control [1]: 0.8 ± 0.5
effect on growth hormone expression (in words) [3]: little or no effect
Growth Hormone Expression relative to Control [3, 5]: 2.3 ± 1.4
Growth Hormone Expression relative to Control ([3]; incubation time 20 m): 1.2
Growth Hormone Expression relative to Control ([3]; incubation time 45 m): 1.9
Growth Hormone Expression relative to Control ([3]; incubation time 1 hr): 2.5
Growth Hormone Expression relative to Control ([3]; incubation time 2 hr): 1.7
Growth Hormone Expression relative to Control ([3]; incubation time 4 hr): 2.1
Growth Hormone Expression relative to Control ([3]; incubation time 24 hr): 2.3
change in growth hormone expression over time (in words) [3]: very little change
